Consider 5 molecules from US20250170120A1, “ALLOSTERIC STING MODULATORS AND METHODS OF USE” (THE BOARD OF REGENTS OF THE UNIVERSITY OF TEXAS SYSTEM, priority 2022, published 2025).

Experiment [1] has as its target T1, STING (Homo sapiens, UniProt Q86WV6, G230A/H232R/R293Q/R71H).
T1 construct: host or cells: THP-1 / THP1-Dual / THP1-Lucia ISG cells
Briefly: cGAMP dose-response IFN induction in the presence of increasing compound concentrations. Particulars: for cGAMP induced IFN induction in the presence of increasing concentrations of compound: FIGS. 16A-16D. The class given is cell-based. Here is the method:
Compounds UT009, UT019, UT073 and UT122 were tested for their ability to interfere with cGAMP induced STING signaling. FIGS. 16A-16D show dose response plots of cGAMP induced IFN induction in the presence of increasing concentrations of each compound.
(§1) Compounds UT017, UT018, UT019 and UT0122 were tested for their ability to interfere with STING signaling. Interferon production in the presence of increasing concentrations of UT017, UT018, UT019 or UT0122 were measured in THP-1 cell lines under basal conditions. […] Compound UT0122 was further tested in THP1-Lucia™ ISG cells for interferon production at varying concentration, in the presence of an increasing dose of a STING agonist cGAMP.

In experiment [2] the target is T1, STING. Nature of the experiment: Interferon production in THP-1 cells under basal conditions (no external stimulation). The experiment is classed as cell-based. Particulars: for Comparative antagonistic effect among UT017, UT018, UT019, UT0122 / Relative induction of interferon production under basal conditions: THP-1 cell lines, basal conditions; for Relative induction of interferon production under basal conditions: increasing concentrations.
Excerpt: (§2) Methods of measuring STING activity and by extension, the activity of the compounds discussed herein, are known in the art. As an example, the STING pathway activity may be evaluated using reporter cell lines where a reporter gene (i.e., luciferase, GFP) is expressed under direct or indirect control of interferon response elements. For example, in an exemplary embodiment, the STING pathway can be measured using THP1-Dual™ cells (InvivoGen) which express the Lucia gene (a secreted luciferase reporter gene) under the control of an ISG54 minimal promoter in conjunction with five IFN-stimulated response elements. The STING pathway, when activated, stimulates interferon release which, in this model, will increase luciferase expression in a detectable manner. When inhibited, interferon release will be decreased, reducing luciferase expression in a detectable manner. The compounds can optionally be tested in the presence of external stimulation (i.e., using cGAMP, a natural agonist of STING, or MSA-2).
as §1
The STING pathway activity was evaluated in THP1-Dual™ cells (Invivogen). 1.5×10^5 THP1-Dual™ cells were seeded in 96-well plates and treated with the test compound followed by cGAMP (100 uM) or MSA-2 (10 uM, Science 2020, 369, eaba6098) 2 hours later. After incubating at 37° C. for 16 hours, the luciferase activity was measured by QUANTI-Luc™ (Invivogen).

For experiment [3], the target named is T1, STING. Nature of the experiment: STING pathway activity in THP1-Dual/THP-1 cells upon cGAMP or MSA-2 stimulation (luciferase/interferon readout). The following applies: THP-1 cells; for inhibition at 10 µM: 10 μM compound, cGAMP (100 μM) or MSA-2 (10 μM) stimulation; for Induction of interferon production in the presence of MSA2: 10 μM MSA2; for Induction of interferon production in the presence of MSA2 / Interferon production in the presence of cGAMP: increasing concentrations of compound; for Interferon production in the presence of cGAMP: 100 μM cGAMP. The experiment is classed as cell-based.
Excerpt: as §2
The STING pathway activity was evaluated in THP1-Dual™ cells (Invivogen). […] After incubating at 37° C. for 16 hours, the luciferase activity was measured by QUANTI-Luc™ (Invivogen).

In experiment [4] the target is human STING (Homo sapiens, UniProt Q86WV6). The following applies: cited from earlier work.
Chain of human STING (Homo sapiens, UniProt Q86WV6) (Q86WV6 whole entry H232R): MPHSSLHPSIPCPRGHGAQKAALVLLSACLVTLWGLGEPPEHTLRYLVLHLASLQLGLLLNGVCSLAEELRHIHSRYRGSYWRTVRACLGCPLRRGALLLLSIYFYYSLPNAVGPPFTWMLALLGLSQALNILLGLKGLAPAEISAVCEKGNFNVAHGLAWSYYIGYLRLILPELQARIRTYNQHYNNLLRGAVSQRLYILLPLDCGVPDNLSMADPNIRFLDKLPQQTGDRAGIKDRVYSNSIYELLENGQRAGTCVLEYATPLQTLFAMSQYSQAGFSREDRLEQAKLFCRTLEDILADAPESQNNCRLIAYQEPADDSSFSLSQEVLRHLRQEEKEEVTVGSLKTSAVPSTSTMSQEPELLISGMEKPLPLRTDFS
The target of experiment [5] is T2, human STING (Homo sapiens, UniProt Q86WV6, H232R).
T2 construct: human STING residues 1-343, excluding the C-terminal tail; T6SS immunity protein 3 (Tsi3) from Pseudomonas aeruginosa (C, cleaved yes); human rhinovirus 3C protease cleavage site (C); made in house; host or cells: HEK293F cells (pEZT-BM vector)
T2 sequence (Q86WV6 1-343 H232R): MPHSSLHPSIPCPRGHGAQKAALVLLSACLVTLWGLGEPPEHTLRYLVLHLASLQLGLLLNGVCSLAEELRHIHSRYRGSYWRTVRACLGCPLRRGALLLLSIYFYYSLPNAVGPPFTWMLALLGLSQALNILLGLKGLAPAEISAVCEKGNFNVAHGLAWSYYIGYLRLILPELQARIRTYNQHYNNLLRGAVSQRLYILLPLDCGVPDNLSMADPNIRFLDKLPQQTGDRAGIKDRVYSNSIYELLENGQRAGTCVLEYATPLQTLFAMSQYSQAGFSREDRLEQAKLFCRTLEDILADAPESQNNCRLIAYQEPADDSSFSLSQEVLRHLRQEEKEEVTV
Briefly: Cryo-EM structure of human STING in complex with compound. The class given is binding. Here is the method: Cryo-EM data collection and image processing. Purified wild type human STING at 50 μM were incubated with cGAMP at 100 μM and C53 at 100 μM for formation of the protein/ligands complex. The complex was purified using a Superose 6 10/300 gel filtration column (GE healthcare) in buffer C. Peak fractions were collected and concentrated to 2.9 mg/ml. Additional cGAMP (100 μM) and C53 (100 μM) were added to ensure saturation of the protein by the ligands. The sample was applied to a glow-discharged Quantifoil R1.2/1.3 300-mesh gold holey carbon grid (Quantifoil, Micro Tools GmbH, Germany), blotted under 100% humidity at 4° C. and plunged into liquid ethane using a Mark IV Vitrobot (FEI).
Micrographs were collected on a Titan Krios microscope (FEI) with a K3 Summit direct electron detector (Gatan) in the super-resolution counting mode operated at 300 kV. The slit width of the GIF-Quantum energy filter was set to 20 eV. The nominal magnification was 81,000× and the pixel size of 1.08 Å. Micrographs were dose-fractioned into 36 frames with a total exposure time of 7.2 s at the dose rate of 1.6 e^−/Å^2/frame in the correlated double sampling (CDS) mode. Movie frames were motion-corrected and dose-weighted using the Motioncorr2 program (version 1.2). GCTF 1.06 was used for CTF correction. […] Local resolution was calculated in RELION (FIG. 6B). […]

T1 sequence (Q86WV6 whole entry R71H/G230A/H232R/R293Q): as the sequence (Q86WV6 whole entry H232R) above, with R71H, G230A, R293Q counted along it

With `Cc1nn(C)c(CN2C(=O)C(C)(C)c3ccc(C(=O)NCc4cc5ccccc5[nH]4)cc32)c1Br` [UT122, N-((1H-indol-2-yl)methyl)-1-((4-bromo-1,3-dimethyl-1H-pyrazol-5-yl)methyl)-3,3-dimethyl-2-oxoindoline-6-carboxamide], the “cGAMP induced IFN induction in the presence of increasing concentrations of compound” value on STING [1] was “dose-dependent suppression of interferon production”. The “Induction of interferon by cGAMP” value at STING [1] (THP1-Lucia ISG cells, varying compound concentration, increasing dose of cGAMP) is on record as “suppressed in a dose-dependent manner”. At STING [2], the “Comparative antagonistic effect among UT017, UT018, UT019, UT0122” value is recorded as “highest antagonistic effect” and the “Relative induction of interferon production under basal conditions” value is given as “suppressed at the highest concentration tested”. For the same molecule, on STING [3], the inhibition (usually the drop in the measured response relative to a control, in per cent) at 10 µM is over 50%; the “Induction of interferon production in the presence of MSA2” value is recorded as “antagonistic activity with an inhibition of interferon production in a dose dependent manner”; the “Interferon production in the presence of cGAMP” value is “antagonistic activity with an inhibition of interferon production in a dose dependent manner”.

Turning to `Cc1ccc2c(=O)c3cccc(CC(=O)O)c3oc2c1C` [DMXAA, 5,6-dimethylxanthenone-4-acetic acid], the “Activation of human STING” value on human STING [4] is reported as “does not activate human STING”.

Turning to `CC1(C)C(=O)N(Cc2c(F)cccc2C(F)(F)F)c2cc(C(=O)NCc3c(F)cc(F)cc3F)ccc21` [UT009, 1-(2-fluoro-6-(trifluoromethyl)benzyl)-3,3-dimethyl-2-oxo-N-(2,4,6-trifluorobenzyl)indoline-6-carboxamide], the “cGAMP induced IFN induction in the presence of increasing concentrations of compound” value at STING [1] was “dose-dependent suppression of interferon production”. Besides, on STING [3], the inhibition at 10 µM was over 50%, the “Induction of interferon production in the presence of MSA2” value was “inhibited the induction of interferon production in a dose dependent manner” and the “Interferon production in the presence of cGAMP” value is “reduction in interferon production with increasing concentration”. In addition, the “Binding site in human STING (cryo-EM)” value at human STING [5] is given as “bind at the same binding pocket as C53”.

Turning to `CC1(C)C(=O)N(Cc2c(F)cccc2Cl)c2cc(CNS(=O)(=O)c3c(F)cc(F)cc3F)ccc21` [UT019, N-((1-(2-chloro-6-fluorobenzyl)-3,3-dimethyl-2-oxoindolin-6-yl)methyl)-2,4,6-trifluorobenzenesulfonamide], the “cGAMP induced IFN induction in the presence of increasing concentrations of compound” value on STING [1] was “dose-dependent suppression of interferon production”. The inhibition at 32 µM at STING [2] (32 μM compound, no external stimulation, THP-1 cells) was over 50%. Further, at STING [2], the “Comparative antagonistic effect among UT017, UT018, UT019, UT0122” value is “highest antagonistic effect” and the “Relative induction of interferon production under basal conditions” value is on record as “suppressed at the highest concentration tested”.

Consider `CC1(C)C(=O)N(Cc2c(Cl)cccc2Oc2cc(F)cc(F)c2)c2cc(C(F)(F)F)ccc21` [UT073, 1-(2-chloro-6-(3,5-difluorophenoxy)benzyl)-3,3-dimethyl-6-(trifluoromethyl) indolin-2-one], for which, at STING [1], the “cGAMP induced IFN induction in the presence of increasing concentrations of compound” value is “dose-dependent suppression of interferon production”. This molecule showed an inhibition at 10 µM against STING [3] of under 50%.
